From US20170080063A1, “HIGHLY SOLUBLE AQUAPORIN-4 EXTRACELLULAR LOOP C PEPTIDE IMMUNIZATION FOR TREATMENT OF NEUROMYELITIS OPTICA” (THE JOHNS HOPKINS UNIVERSITY, priority 2014, published 2017)
Entries after “also recorded” stand apart in the source; their conditions may differ.

Assays:
AQP4 null mice = experiment: Antibody production against AQP4 extracellular loop peptides after immunization; assay type: in vivo, mouse; settings: AQP4 null mice immunized with the peptides
mice = experiment: Neurological symptoms / clinical phenotype in mice given peptide; assay type: in vivo, mouse; settings: for neurological symptoms (paralysis from spinal cord inflammation, visual impairment from optic nerve inflammation): mice administered the peptide; for clinical phenotype / autoimmune neurological disease after immunization: immunized AQP4 null mice
T cells = experiment: T cell proliferation assay (3H-thymidine incorporation) with spleen cells of immunized mice; assay type: cell-based, mouse; settings: for T cell response against the peptide: T cells from AQP4 null mice immunized with AQP4 loop peptides
[1] = system: IL-17 and interferon-gamma (IFN-γ) cytokine-producing cells; experiment: ELISPOT assay of cytokine-producing cells; assay type: cell-based, mouse
Procedure: ELISPOT assay was used to determine the frequency of cytokine-producing cells in polarized and unpolarized cell cultures. The day before cells were to be harvested from immunized AQP4 null mice, the wells of an immobilon P-bottom 96-well plates (Multiscreen®HTS, 0.45 μm pore size; EMB Millipore, USA) were pre-wet with 35% ethanol for 30 seconds, washed three times with coating buffer, and coated with 50 μl of a 1:250 dilution of capture antibody, anti-IL17 (Th17), provided with ELISPOT Ready-Set-Go kits (eBioscience). Plates were covered and incubated overnight at 4° C. Wells were then washed twice with coating buffer and once with complete media; plates were stored in the incubator until cells were prepared. Spleen and lymph node cells were prepared as described above and prepared with and without polarizing conditions. Harvested cells were 2-fold serially diluted in media containing 3×10^7 irradiated splenocytes (irradiated with 3,500 rads) as antigen-presenting cells (APCs); APCs mixed 12:1 with 1.25×10^5 lymph node cells per well yielded the most well-defined spots. After overnight in culture, wells were washed (TBS+0.05% Tween®-20). Detection antibody was diluted 1:250 in diluents provided in the kit and 50 μl applied to each well for 2 hours at RT. After washing, streptavidin-alkaline phosphatase was added to each well (1:2500; Sigma) for 45 minutes. After further washing, signal was developed with development solution containing BCIP and NBT (i.e. 150 mM Tris-HCl, 5 mM MgCl2, 100 mM NaCl, pH9.5 supplemented with 4 mM levamisole (Sigma), 0.15 mg/ml 5-bromo-4-chloro-3-indolyl-phosphate, and 0.36 mg/ml 4-nitro blue tetrazolium chloride (Roche) for 10 minutes at room temperature in the dark. Reaction was stopped by washing with PBS then distilled H2O before air drying. Spots were imaged with an Immunospot Series 3 Analyzer (Cellular Technology, Ltd.) and counted using Image J and the “find Maxima” function. Results are expressed as the mean of triplicate values (±standard error of the mean, SEM) adjusted to per 10^6 cells per well. Student's t-test was performed on data; p<0.05 was considered statistically significant.

[2] = after polarization to Th17 phenotype, exposed to peptide
[3] = after polarization to Th17 phenotype, exposed to peptide, listed as AQP4135-53
[4] = unpolarized cell culture exposed to peptide, versus no stimulation
[5] = unpolarized cell culture exposed to peptide, versus no stimulation, listed as AQP4135-53

Row | Substance | antibody production against the loop peptide (AQP4 null mice) | neurological symptoms (paralysis from spinal cord inflammation, visual impairment from optic nerve inflammation) (mice) | T cell response against the peptide (T cells) | clinical phenotype / autoimmune neurological disease after immunization (mice) | further results
1 | GNWENH (listed as Homo sapiens) [loop E, AQP4 extracellular loop E peptide (human 212-30 used)] | no evidence of antibody production | – | – | – | –
2 | GILYLVTPPSVVGGLGVTMV [SEQ ID NO: 9, reference compound] | – | no such neurological symptoms | – | – | –
3 | MOG peptide 35-55: myelin-oligodendrocyte glycoprotein (MOG) peptide 35-55 (MEVGWYRSPFSRVVHLYRNGK; UniProt Q61885 63-83, looked up, fragment) [reference compound] | – | – | – | – | T cell proliferative activity (incorporation of tritiated-thymidine) (T cells; T cells from control wildtype mice (wt-MOG) immunized with MOG peptide 35-55): showed proliferative activity
4 | TPPSVVGGLGVTMVHGNLTAG (listed as Homo sapiens) [loop C, peptide corresponding to the second extracellular loop of AQP4] | No evidence of antibody production | – | robust T cell response | no clinical phenotype | T cell response against the peptide (T cells; listed as loop C peptide): robust T cell response; also recorded: stimulated a T cell response
5 | GTEKPLPV (listed as Homo sapiens) [loop A, AQP4 extracellular loop A peptide (human 56-69 used)] | no evidence of antibody production | – | – | – | –
6 | LVTPPSVVGGLGVTMVHGN [SEQ ID NO: 8] | no evidence of antibody production | development of phenotypes | remarkable T cell response; also recorded: robust T cell response; also recorded: robust reaction | did not develop autoimmune neurological disease | number of IFN-γ producing cells [1, 2]: barely detectable; number of IL-17 producing cells [1, 2]: doubled; number of IFN-γ producing cells [1, 3]: nearly undetectable; number of IL-17 producing cells [1, 3]: almost doubled; number of IFN-γ producing cells [1, 4]: significant number; number of IL-17 producing cells [1, 4]: significant number; number of IFN-γ producing cells [1, 5]: significant levels; number of IL-17 producing cells [1, 5]: significant levels
